Results taken from patent US10226445B2, “Pharmaceutical preparations” (Symrise AG, priority 2013, dated 2019).

System: HGT-1 cells
Experiment: Intracellular pH / proton secretion of HGT-1 cell cultures (SNARF-1-AM dye)
Type: cell-based, human
Conditions: for proton secretion in the HGT-1 cells (in words): substances of group (b), Tables 1A and 1B; for activation at 30 µM: 0.03 mM substance of group (a) alone; for activation at 300 µM: 0.3 mM substance of group (a) alone; for stimulation of proton secretion by 3 mM caffeine or 0.3 mM theobromine (in words): additional administration at a concentration of 0.3 mM; for induced gastric acid secretion (in words): preparations with caffeine and/or theobromine as component (b)
Method: Human parietal cells, also known as human gastric tumor cell line (HGT-1), are used as cell model. These were provided by Dr. C. Laboisse (Laboratory of Pathological Anatomy, Nantes, France). The cells were cultured under standard conditions at 37° C., 5% CO2 in DMEM (Dulbecco's Modified Eagle's Medium) with 4 g/l glucose, 10% FBS, 2% L-glutamine and 1% penicillin/streptomycin. For the measurement of the intracellular proton concentration, the cells are treated with trypsin/EDTA, the viability determined by means of trypan blue staining and 100 000 cells/well seeded in black 96-well plates.
To measure the intracellular pH, the dye 1,5-carboxyseminaphthorhodafluoro acetoxymethyl ester (SNARF-1-AM) is used. The cells in the 96-well plates are washed once with Krebs-Hepes buffer (KRHP) and incubated at 37° C. and 5% CO2 for 30 min with the dye dissolved in KRHP at a concentration of 3 μM. The cells are then washed twice with KRHP and substances of group (b), for example 3 mM caffeine or 0.3 mM theobromine, alone or in combination with substances of group (a), for example, homoeriodictyol (HED) or eriodictyol or matairesinol, lariciresinol or enterolactone, are applied in volumes of 100 μl at various concentrations in phenol red-free DMEM; as additional control experiments, the abovementioned substances of group (a) are tested alone. Homoeriodictyol is dissolved in double-distilled water while eriodictyol, matairesinol, lariciresinol or enterolactone are dissolved in ethanol (EtOH). The final concentration of solvent which is added to the cells is at most 1%. The fluorescent dye is excited at a wavelength of 488 nm and the emission measured at 580 nm and 640 nm. The ratio of the fluorescence values at 580 nm to 640 nm is compared to a calibration curve from which the pH can be determined. For the calibration curve, the cells are treated with a potassium phosphate buffer of different pH values from pH 7.2-8.2 and 2 μM nigericin. Nigericin equilibrates the intracellular and extracellular pH such that the intracellular pH may be defined. The intracellular H^+ concentration is determined from the intracellular pH. The intracellular proton index (IPX) is calculated by log 2 transformation of the ratio of treated cells and untreated cells (control). […] The number of replicates specified refers to the technical replicates (tr) or the number or total replicates (n), which results from the number of technical replicates multiplied by the number of biological replicates.

[1] = 0.03 mM substance of group (a) in combination with 3 mM caffeine, 10 minutes
[2] = 0.3 mM substance of group (a) in combination with 3 mM caffeine, 10 minutes
[3] = Homo sapiens, HGT-1, 10 min, 10 minutes, read-out: T/C [%], percentage increase of the proton secretion compared to untreated controls
[4] = 0.03 mM substance of group (a) in combination with 0.3 mM theobromine, 10 minutes
[5] = 0.3 mM substance of group (a) in combination with 0.3 mM theobromine, 10 minutes

SMILES | T/C [%], percentage increase of the proton secretion compared to untreated controls (3 mM substance + 1% EtOH, 10 minutes stimulation) [%] | proton secretion in the HGT-1 cells (in words) | T/C [%], percentage increase of the proton secretion compared to untreated controls [1] [%] | T/C [%], percentage increase of the proton secretion compared to untreated controls [2] [%] | activation at 30 µM [3] [%] | activation at 300 µM [3] [%] | stimulation of proton secretion by 3 mM caffeine or 0.3 mM theobromine (in words) | induced gastric acid secretion (in words) | T/C [%], percentage increase of the proton secretion compared to untreated controls [4] [%] | T/C [%], percentage increase of the proton secretion compared to untreated controls [5] [%] | T/C [%], percentage increase of the proton secretion compared to untreated controls (0.003 mM substance of group (a) in combination with 0.3 mM theobromine, 10 minutes) [%] | activation at 3 µM (Homo sapiens, HGT-1, 10 min, 0.003 mM substance of group (a) alone, 10 minutes, read-out: T/C [%], percentage increase of the proton secretion compared to untreated controls) [%] | activation at 1000 µM (Homo sapiens, HGT-1, 10 min, 1 mM substance alone, 10 minutes stimulation, read-out: T/C [%], percentage increase of the proton secretion compared to untreated controls) [%] | T/C [%], percentage increase of the proton secretion compared to untreated controls (0.3 mM substance of group (b) + 1% EtOH, 10 minutes stimulation) [%]
Cn1c(=O)c2c(ncn2C)n(C)c1=O [Caffeine, caffeine, reference compound] | 44.92 | stimulated |  |  |  |  |  |  |  |  |  |  |  | 
O=C1OC[C@@H](Cc2cccc(O)c2)[C@@H]1Cc1cccc(O)c1 [Enterolactone, enterolactone] |  |  | 23.41 | −18.25 | -2.76 | -27.3 | reduced or completely inhibited | highest reduction or complete inhibition |  |  |  |  |  | 
O=C1CC(c2ccc(O)c(O)c2)Oc2cc(O)cc(O)c21 (stereo not drawn) [Eriodictyol, eriodictyol] |  |  | 29.69 | −33.96 | -10.8 | -11.7 | reduced or completely inhibited | highest reduction or complete inhibition | 23.95 | −42.86 |  |  |  | 
COc1cc(C2CC(=O)c3c(O)cc(O)cc3O2)ccc1O (stereo not drawn) [HED, homoeriodictyol] |  |  | 37.99 | 20.18 | 12.7 | -3.66 | reduced or completely inhibited | highest reduction or complete inhibition | 13.79 | −16.92 | 21.56 | -8.04 |  | 
NCCc1c[nH]cn1 [Histamine, reference compound] |  |  |  |  |  |  |  |  |  |  |  |  | 27.4 | 
COc1cc(C[C@H]2CO[C@H](c3ccc(O)c(OC)c3)[C@H]2CO)ccc1O [Lariciresinol, lariciresinol] |  |  | 46.40 | 21.57 | 6.4 | -2.04 | reduced or completely inhibited | highest reduction or complete inhibition | 31.73 | 17.55 |  |  |  | 
COc1cc(C[C@H]2COC(=O)[C@@H]2Cc2ccc(O)c(OC)c2)ccc1O [Matairesinol, matairesinol] |  |  | 14.39 | −20.43 | -9.4 | -31.7 | reduced or completely inhibited | highest reduction or complete inhibition | 23.41 | −18.25 |  |  |  | 
Cn1cnc2c1c(=O)[nH]c(=O)n2C [Theobromine, theobromine, reference compound] |  | stimulated |  |  |  |  |  |  |  |  |  |  |  | 32.11
